Source: patent US8877741B2, “Pyrrolidine derivatives, pharmaceutical compositions and uses thereof” (Boehringer Ingelheim International GmbH, priority 2013, dated 2014)

Target: human ACC2 (Homo sapiens (Human), UniProt O00763)
Experiment: ACC2 assay, spectrophotometric 384 well assay (NADH-linked kinetic method)
Format: biochemical
Conditions: human ACC2 construct lacking the 128 N-terminal amino acids; coupled lactate dehydrogenase/pyruvate kinase reaction, 340 nm, 25° C.
Summary of the method: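 N-terminally truncated human ACC2 (lacking 128 residues), expressed in insect cells, was coupled to pyruvate kinase/lactate dehydrogenase, with NADH and acetyl-CoA at 2000 μM and ATP at 500 μM final. The OD340 decrease was followed over 15 min at 25 °C. Slopes were normalised to vehicle and no-acetyl-CoA controls, and IC50 came from four-parameter regression.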

Chain of human ACC2 (O00763 129-2458): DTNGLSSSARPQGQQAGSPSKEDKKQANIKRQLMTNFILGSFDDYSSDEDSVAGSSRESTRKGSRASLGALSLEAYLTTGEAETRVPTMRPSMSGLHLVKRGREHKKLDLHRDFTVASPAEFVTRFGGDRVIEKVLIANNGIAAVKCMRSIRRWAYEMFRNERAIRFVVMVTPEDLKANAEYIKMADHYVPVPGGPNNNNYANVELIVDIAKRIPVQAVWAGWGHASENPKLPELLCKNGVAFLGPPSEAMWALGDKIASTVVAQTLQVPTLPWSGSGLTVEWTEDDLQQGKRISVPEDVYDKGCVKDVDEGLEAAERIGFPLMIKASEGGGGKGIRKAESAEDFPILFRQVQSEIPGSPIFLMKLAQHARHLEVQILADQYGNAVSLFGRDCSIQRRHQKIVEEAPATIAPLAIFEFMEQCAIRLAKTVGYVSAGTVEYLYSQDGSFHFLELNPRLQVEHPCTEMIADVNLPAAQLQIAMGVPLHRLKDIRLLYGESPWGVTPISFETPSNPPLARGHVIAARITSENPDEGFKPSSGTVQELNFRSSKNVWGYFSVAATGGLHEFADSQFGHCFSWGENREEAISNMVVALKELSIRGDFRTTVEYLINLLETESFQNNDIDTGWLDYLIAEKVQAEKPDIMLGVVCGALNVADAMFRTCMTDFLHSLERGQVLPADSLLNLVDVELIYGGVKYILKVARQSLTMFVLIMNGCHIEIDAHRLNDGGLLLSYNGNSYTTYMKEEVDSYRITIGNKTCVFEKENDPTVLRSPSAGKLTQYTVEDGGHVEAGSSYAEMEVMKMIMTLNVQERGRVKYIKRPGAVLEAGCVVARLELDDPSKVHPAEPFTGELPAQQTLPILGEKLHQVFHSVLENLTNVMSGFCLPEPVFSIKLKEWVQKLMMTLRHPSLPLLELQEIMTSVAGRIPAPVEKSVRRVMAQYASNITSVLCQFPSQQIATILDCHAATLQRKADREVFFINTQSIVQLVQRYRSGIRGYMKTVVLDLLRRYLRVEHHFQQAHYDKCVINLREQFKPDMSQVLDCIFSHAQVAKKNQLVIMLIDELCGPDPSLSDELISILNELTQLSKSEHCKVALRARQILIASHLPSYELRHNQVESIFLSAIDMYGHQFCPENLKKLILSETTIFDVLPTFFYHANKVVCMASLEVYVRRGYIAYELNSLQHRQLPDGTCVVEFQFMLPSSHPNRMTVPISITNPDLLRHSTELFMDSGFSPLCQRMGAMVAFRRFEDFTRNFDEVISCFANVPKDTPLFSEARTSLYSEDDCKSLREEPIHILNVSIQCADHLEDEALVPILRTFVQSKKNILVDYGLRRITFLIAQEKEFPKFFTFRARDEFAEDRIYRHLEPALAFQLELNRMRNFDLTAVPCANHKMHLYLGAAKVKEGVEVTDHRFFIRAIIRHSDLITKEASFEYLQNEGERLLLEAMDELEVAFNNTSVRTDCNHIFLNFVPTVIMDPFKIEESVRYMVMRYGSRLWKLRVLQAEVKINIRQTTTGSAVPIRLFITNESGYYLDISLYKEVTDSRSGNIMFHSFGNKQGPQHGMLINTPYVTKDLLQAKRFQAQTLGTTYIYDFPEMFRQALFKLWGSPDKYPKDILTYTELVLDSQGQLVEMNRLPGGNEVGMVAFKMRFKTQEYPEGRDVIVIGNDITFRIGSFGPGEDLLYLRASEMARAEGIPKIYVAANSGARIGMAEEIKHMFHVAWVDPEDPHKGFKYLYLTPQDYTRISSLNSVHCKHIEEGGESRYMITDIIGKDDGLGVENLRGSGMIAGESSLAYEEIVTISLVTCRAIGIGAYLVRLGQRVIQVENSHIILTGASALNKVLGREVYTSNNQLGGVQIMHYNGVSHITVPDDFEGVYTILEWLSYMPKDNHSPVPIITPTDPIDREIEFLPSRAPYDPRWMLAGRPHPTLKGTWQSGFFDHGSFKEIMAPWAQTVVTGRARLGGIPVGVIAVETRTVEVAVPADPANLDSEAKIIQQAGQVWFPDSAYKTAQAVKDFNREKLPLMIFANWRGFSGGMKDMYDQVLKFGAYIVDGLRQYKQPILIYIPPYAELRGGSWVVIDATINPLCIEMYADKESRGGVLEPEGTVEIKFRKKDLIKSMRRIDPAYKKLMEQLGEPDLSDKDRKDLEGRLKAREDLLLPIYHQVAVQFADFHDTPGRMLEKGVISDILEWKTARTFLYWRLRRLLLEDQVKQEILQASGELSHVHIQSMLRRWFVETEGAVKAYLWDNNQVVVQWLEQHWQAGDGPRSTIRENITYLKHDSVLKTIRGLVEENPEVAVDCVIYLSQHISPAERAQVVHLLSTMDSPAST

Compound | IC50
CCCN(C)c1nccc(N2CC[C@@H](Oc3ccc([C@H](C)NC(C)=O)cc3)C2)c1F [Example 1.103] | 70 nM
C[C@H](NC(=O)C(C)(C)C)c1ccc(O[C@@H]2CCN(c3cccc(C(F)(F)F)n3)C2)cc1 [Example 5.1, N—((S)-1-(4-((R)-1-(6-(Trifluoromethyl)pyridin-2-yl)pyrrolidin-3-yloxy)phenyl)ethyl) pivalamide] | 649 nM
CNC(=O)N[C@@H](C)c1ccc(OC2CCN(c3ccnc(OCC(F)F)c3)C2)cc1 (stereo partly shown) [Example 3.14] | 238 nM
CC(=O)N[C@@H](C)c1ccc(O[C@@H]2CCN(c3ccnc(N4CCC4)c3F)C2)cc1 [Example 1.101] | 92 nM
COCCNc1nccc(N2CC[C@@H](Oc3ccc([C@H](C)NC(C)=O)cc3)C2)c1F [Example 1.119] | 1330 nM
CC(=O)N[C@@H](C)c1ccc(O[C@@H]2CCN(c3ccnc(OCC(C)C)c3C)C2)cc1 [Example 9.58] | 55 nM
COC(C)(C)COc1nccc(N2CC[C@@H](Oc3ccc([C@H](C)NC(C)=O)cc3)C2)c1F [Example 9.87] | 280 nM
CNC(=O)N[C@@H](C)c1ccc(OC2CCN(c3ccnc(OCC4CC4)c3)C2)cc1 (stereo partly shown) [Example 3.5] | 50 nM
C[C@H](NC(=O)c1ccno1)c1ccc(OC2CCN(c3cccc(C(F)(F)F)n3)C2)cc1 (stereo partly shown) [Example 2.52] | 275 nM
CCC(=O)Nc1nc(C)c(C(=O)N[C@@H](C)c2ccc(O[C@@H]3CCN(c4ccnc(NCC(F)F)c4F)C3)cc2)s1 [Example 1.141] | 421 nM
C[C@H](NC(=O)C(C)(F)F)c1ccc(OC2CCN(c3cccc(C(F)(F)F)n3)C2)cc1 (stereo partly shown) [Example 2.63] | 204 nM
C[C@H](NC(=O)c1cnco1)c1ccc(OC2CCN(c3cccc(C(F)(F)F)n3)C2)cc1 (stereo partly shown) [Example 2.122] | 85 nM
CCOc1nccc(N2CC[C@@H](Oc3ccc([C@H](C)NC(C)=O)cc3)C2)c1Cl [Example 9.76] | 114 nM
CC(C)C(=O)N[C@@H](C)c1ccc(OC2CCN(c3cccc(C(F)(F)F)n3)C2)cc1 (stereo partly shown) [Example 2.38] | 869 nM
CC(=O)N[C@@H](C)c1ccc(O[C@@H]2CCN(c3ccnc(NCC(C)(C)O)c3F)C2)cc1 [Example 10.53] | 215 nM
Cc1cccc(N2CC[C@@H](Oc3ccc([C@H](C)NC(=O)c4cncs4)cc3)C2)n1 [Example 1.85] | 107 nM
CC(=O)Nc1nc(C)c(C(=O)N[C@@H](C)c2ccc(OC3CCN(c4ccc(OC[C@H]5CC5(F)F)cn4)C3)cc2)s1 (stereo partly shown) [Example 2.90] | 9 nM
C[C@H](NC(=O)c1cnn(C)c1)c1ccc(OC2CCN(c3cccc(C(F)(F)F)n3)C2)cc1 (stereo partly shown) [Example 2.36] | 130 nM
CC(=O)N[C@@H](C)c1ccc(OC2CCN(c3cccc(C(C)(C)C)n3)C2)cc1 (stereo partly shown) [Example 1.59] | 150 nM
CC(=O)N[C@@H](C)c1ccc(O[C@@H]2CCN(c3cccc(N4CCCC4C)n3)C2)cc1 (stereo partly shown) [Example 10.33] | 133 nM
CC(=O)N[C@@H](C)c1ccc(O[C@@H]2CCN(c3nc(N4CCCCC4)c(F)cc3F)C2)cc1 [Example 10.6] | 827 nM
CC(C)Oc1cc(N2CCC(Oc3ccc([C@H](C)NC(=O)c4cncs4)cc3)C2)ccn1 (stereo partly shown) [Example 2.24] | 199 nM
CC(=O)N[C@@H](C)c1ccc(O[C@@H]2CCN(c3ccc(OCC4CC4(F)F)cn3)C2)cc1 (stereo partly drawn) [Example 1.1, N—((1S)-1-(4-((3R)-1-(5-((2,2-Difluorocyclopropyl)methoxy)pyridin-2-yl)pyrrolidin-3-yloxy)phenyl)ethyl)acetamide] | 46 nM
CC(C)Oc1cc(N2CCC(Oc3ccc([C@H](C)NC(=O)C(C)C#N)cc3)C2)ccn1 (stereo partly shown) [Example 2.23] | 970 nM

Compound | IC50
CC(=O)N[C@@H](C)c1ccc(OC2CCN(c3ccc(OCC4CC4)nc3)C2)cc1 (stereo partly shown) [Example 1.14] | 394 nM
CC(=O)N[C@@H](C)c1ccc(O[C@@H]2CCN(c3ccnc(OCC4CC4C)c3)C2)cc1 (stereo partly shown) [Example 9.23] | 45 nM
C[C@H](NC(=O)c1ccon1)c1ccc(OC2CCN(c3cccc(C(F)(F)F)n3)C2)cc1 (stereo partly shown) [Example 2.51] | 128 nM
C[C@H](NC(=O)C1(C)CC1)c1ccc(OC2CCN(c3ccnc(OCC4CC4)c3)C2)cc1 (stereo partly shown) [Example 2.73] | 65 nM
COc1c(N2CC[C@@H](Oc3ccc([C@H](C)NC(C)=O)cc3)C2)ccnc1OCC(C)(C)O [Example 1.151] | 504 nM
CC(C)Oc1cc(N2CCC(Oc3ccc([C@H](C)NC(=O)C(F)F)cc3)C2)ccn1 (stereo partly shown) [Example 2.19] | 250 nM
Cc1occc1C(=O)N[C@@H](C)c1ccc(OC2CCN(c3ccnc(OC(C)C)c3)C2)cc1 (stereo partly shown) [Example 2.12] | 921 nM
C[C@H](NC(=O)c1ccno1)c1ccc(OC2CCN(c3ccnc(OCC4CC4)c3)C2)cc1 (stereo partly shown) [Example 2.85] | 105 nM
CC(=O)N[C@@H](C)c1ccc(O[C@@H]2CCN(c3cccc(N(C)CC4CCOC4)n3)C2)cc1 (stereo partly shown) [Example 10.25] | 331 nM
COCC(=O)Nc1nc(C)c(C(=O)N[C@@H](C)c2ccc(OC3CCN(c4ccnc(OCC(F)F)c4)C3)cc2)s1 (stereo partly shown) [Example 2.96] | 55 nM
CC(=O)N[C@@H](C)c1ccc(O[C@@H]2CCN(c3ccnc(OCC(C)(C)O)c3Cl)C2)cc1 [Example 9.88] | 177 nM
CCOc1cc(N2CCC(Oc3ccc([C@H](C)NC(C)=O)cc3)C2)c(C)cn1 (stereo partly shown) [Example 1.24] | 447 nM
CC(=O)Nc1cncc(C(=O)N[C@@H](C)c2ccc(OC3CCN(c4ccnc(OC(C)C)c4)C3)cc2)c1 (stereo partly shown) [Example 2.22] | 998 nM
CC(=O)N[C@@H](C)c1ccc(O[C@@H]2CCN(c3cc(N(C)C)ncc3F)C2)cc1 [Example 10.24] | 285 nM
CC#CCCOc1cc(N2CC[C@@H](Oc3ccc([C@H](C)NC(C)=O)cc3)C2)ccn1 [Example 9.5] | 390 nM
CC(C)Oc1cc(N2CCC(Oc3ccc([C@H](C)NC(=O)C4CCOC4)cc3)C2)ccn1 (stereo partly shown) [Example 2.15] | 769 nM
CCCOc1ccc(N2CCC(Oc3ccc([C@H](C)NC(C)=O)cc3)C2)cn1 (stereo partly shown) [Example 1.4] | 193 nM
CC(=O)N[C@@H](C)c1ccc(O[C@@H]2CCN(c3cccc(N(C)CC4CC4)n3)C2)cc1 [Example 10.2] | 208 nM
CCC(=O)N[C@@H](C)c1ccc(OC2CCN(c3ccnc(N4CCC(F)(F)C4)c3F)C2)cc1 (stereo partly shown) [Example 5.3] | 34 nM
C[C@H](NC(=O)C(F)(F)F)c1ccc(OC2CCN(c3ccnc(OCC(F)F)c3)C2)cc1 (stereo partly shown) [Example 2.113] | 77 nM
C[C@H](NC(=O)[C@@H](C)O)c1ccc(OC2CCN(c3ccnc(OCC(F)F)c3)C2)cc1 (stereo partly shown) [Example 2.105] | 784 nM
Cc1nocc1C(=O)N[C@@H](C)c1ccc(OC2CCN(c3ccnc(OC(C)C)c3)C2)cc1 (stereo partly shown) [Example 2.5] | 70 nM
C[C@H](NC(=O)C(F)(F)F)c1ccc(OC2CCN(c3ccnc(OCC4CC4)c3)C2)cc1 (stereo partly shown) [Example 7.3] | 54 nM
C[C@H](NC(=O)c1ccno1)c1ccc(OC2CCN(c3ccnc(OCC(F)F)c3)C2)cc1 (stereo partly shown) [Example 2.107] | 389 nM

Compound | IC50
CC(C)Oc1cc(N2CCC(Oc3ccc([C@H](C)NC(=O)CC#N)cc3)C2)ccn1 (stereo partly shown) [Example 2.7] | 389 nM
C[C@H](NC(=O)N1CCC1)c1ccc(OC2CCN(c3ccc(OCC4CC4(F)F)cn3)C2)cc1 (stereo partly shown) [Example 3.9] | 200 nM
C[C@H](NC(=O)c1ccon1)c1ccc(OC2CCN(c3ccnc(OCC4CC4)c3)C2)cc1 (stereo partly shown) [Example 2.70] | 99 nM
CC(=O)N[C@@H](C)c1ccc(O[C@@H]2CCN(c3ccnc(OCC4CCCO4)c3)C2)cc1 (stereo partly shown) [Example 9.48] | 495 nM
CCCOc1cnc(N2CCC(Oc3ccc([C@H](C)NC(C)=O)cc3)C2)c(F)c1 (stereo partly shown) [Example 1.11] | 151 nM
CC(=O)N[C@@H](C)c1ccc(O[C@@H]2CCN(c3ccnc(N4CCC(F)(F)C4)c3Cl)C2)cc1 [Example 1.132] | 41 nM
COc1c(N2CC[C@@H](Oc3ccc([C@H](C)NC(C)=O)cc3)C2)ccnc1OCC(C)C [Example 1.120] | 32 nM
CCCOc1ccc(N2CC[C@@H](Oc3ccc([C@H](C)NC(=O)c4sc(NC(C)=O)nc4C)cc3)C2)cn1 [Example 1.46] | 149 nM
C[C@H](NC(=O)N1CCOCC1)c1ccc(OC2CCN(c3ccnc(OCC(F)F)c3)C2)cc1 (stereo partly shown) [Example 3.13] | 497 nM
CC(=O)N[C@@H](C)c1ccc(OC2CCN(c3nc(C(F)(F)F)ccc3F)C2)cc1 (stereo partly shown) [Example 1.36] | 168 nM
COCC(=O)Nc1nc(C)c(C(=O)N[C@@H](C)c2ccc(OC3CCN(c4ccc(OCC5CC5(F)F)cn4)C3)cc2)s1 (stereo partly shown) [Example 2.120] | 37 nM
COc1c(N2CC[C@@H](Oc3ccc([C@H](C)NC(C)=O)cc3)C2)ccnc1N(C)C [Example 1.137] | 633 nM
Cc1c(N2CC[C@@H](Oc3ccc([C@H](C)NC(=O)/C=C/C4CC4)cc3)C2)ccnc1OCC1CC1 [Example 9.59] | 235 nM
CCCOc1ccc(N2CC[C@@H](Oc3ccc([C@H](C)NC(=O)c4sc(NC(C)=O)nc4C)cc3)C2)nc1 [Example 1.50] | 170 nM
CC(=O)N[C@@H](C)c1ccc(OC2CCN(c3ccc(OCC(C)C)cn3)C2)cc1 (stereo partly shown) [Example 1.8] | 375 nM
CC(=O)N[C@@H](C)c1ccc(O[C@@H]2CCN(c3ccnc(OCc4cccnc4)c3)C2)cc1 [Example 9.30] | 402 nM
C[C@H](NC(=O)c1cn[nH]c1)c1ccc(OC2CCN(c3ccnc(OCC4CC4)c3)C2)cc1 (stereo partly shown) [Example 2.86] | 63 nM
COCCN(C)c1cccc(N2CC[C@@H](Oc3ccc([C@H](C)NC(C)=O)cc3)C2)n1 [Example 10.28] | 142 nM
COc1c(N2CC[C@@H](Oc3ccc([C@H](C)NC(C)=O)cc3)C2)ccnc1OCC1CC1(F)F (stereo partly shown) [Example 14.2] | 45 nM
CC(=O)N[C@@H](C)c1ccc(O[C@@H]2CCN(c3ccnc(OCCC(C)C)c3)C2)cc1 [Example 9.34] | 95 nM
CC(=O)N[C@@H](C)c1ccc(O[C@@H]2CCN(c3ccnc(C(F)(F)F)c3)C2)cc1 [Example 8.4] | 438 nM
CC(=O)N[C@@H](C)c1ccc(O[C@@H]2CCN(c3ccnc(OC4CCC4)c3)C2)cc1 [Example 9.1] | 39 nM
